In publication PMC10256634, “Comparative in vivo toxicokinetics of silver powder, nanosilver and soluble silver compounds after oral administration to rats” (Archives of Toxicology, 2023):

Experiments:
[1] = Absolute bioavailability (F value) from single-dose oral and i.v. blood AUC; assay type: in vivo, Sprague–Dawley rats; settings: single-dose oral vs i.v. AUC; data not shown
Protocol: All in vivo and analytical experimental segments were performed in accordance with Good Laboratory Practice standards (OECD [1998]) and the adopted TK experimental design conformed to approaches set out in OECD TG 417 ([2010]). Comparative TK data for the various test items were obtained after single doses, and repeated dose administration for 28 days. This was based on measurement of Ag levels in whole blood at various timepoints, and also total Ag content in tissues (in the repeated dose study phase). This approach facilitated a direct quantitative comparison of parameters such as bioavailability, achieved systemic exposure and the delivered Ag dose to tissues after administration of the different Ag test items. Determination of single-dose p.o. and i.v. blood-level profiles was intended to provide information on absolute bioavailability (F value). Parallel vehicle control groups were included within each phase.
Animals (4 per sex/per treatment level) received test item via i.v. injection or oral gavage administration. Intravenous injection (bolus) was via the tail vein. Oral gavage administration was performed using a suitable graduated syringe and a rubber catheter. Dosing volumes for i.v. and oral administration were calculated based on the individual animal bodyweights.

[2] = Toxicokinetics after 28 days repeated oral gavage dosing, total Ag in whole blood (ICP-MS); settings: for AUC0-t / DN AUC0-t: 0 to 96 h post-dose
[3] = Behaviour, homogeneity and stability of dosing formulations; assay type: physicochemical; settings: oral: 1% MC (AgMP, AgNP) or purified water (AgAc, AgNO3); i.v.: 5% glucose or purified water
Protocol: Further details are provided under Supplementary information.
Polypropylene vessels and containers were used throughout preparation and storage to limit artefactual loss of Ag from adsorption onto surfaces (Sekine et al. [2015]). Vessels were pre-cleaned with a dilute nitric acid solution and then rinsed thoroughly with ultrapure water to remove contaminants. Chloride- or phosphate-containing vehicles and reagents were avoided to prevent Ag precipitation. Dosing formulations were prepared once for the single-dose administrations, and weekly for the repeated dose phase (divided into daily aliquots). […]
An extensive analytical pre-testing program was performed to fully characterize the test items and develop protocols to optimise the homogeneity and stability of dosing formulations. […] The Ag^+ fraction in the silver powder (AgMP) dosing formulations was determined to be a maximum of 0.004%. […]
To assure their accurate concentration, uniform homogeneity and physical stability, dosing formulation concentrations were analytically verified after preparation but before first administration using inductively coupled plasma mass spectrometry (ICP-MS) for determination of total Ag content. […] Samples of each formulation prepared for i.v. and single oral administration, as well as for Weeks 1 and 4 of the repeated dosing segment were analysed. […]

[4] = Toxicokinetics after single oral gavage dose, total Ag in whole blood (ICP-MS)
[5] = 28 d oral 5 mg/kg bw/d [Ag equivalent 3.25 AgAc, 3.2 AgNO3], female
[6] = 28 d oral 5 mg/kg bw/d [Ag equivalent 3.25 AgAc, 3.2 AgNO3], male
[7] = 28 d oral 175 [114 Ag] mg/kg bw/d, female
[8] = 28 d oral 175 [114 Ag] mg/kg bw/d, male
[9] = single oral dose 5 mg/kg bw [Ag equivalent 3.25 AgAc, 3.2 AgNO3], female
[10] = single oral dose 5 mg/kg bw [Ag equivalent 3.25 AgAc, 3.2 AgNO3], male
[11] = single oral dose 175 [114 Ag] mg/kg bw, female
[12] = single oral dose 175 [114 Ag] mg/kg bw, male
[13] = 28 d oral 125 [80 Ag] mg/kg bw/d, female
[14] = 28 d oral 125 [80 Ag] mg/kg bw/d, male
[15] = single oral dose 125 [80 Ag] mg/kg bw, female
[16] = single oral dose 125 [80 Ag] mg/kg bw, male

## CC(=O)[O-].[Ag+] [AgAc, Silver(I) acetate]
[1]
  absolute bioavailability (F value): ≤ 5%
[2]; [5]
  AUC0-t: 10,200 ng.h/mL
  DN AUC0-t: 2960 (ng.h/mL)/(mg/kg bw/d)
  Cmax: 216 ng/mL
  Tmax: 3 h
  t1/2: 41.3 h
[2]; [6]
  AUC0-t: 6220 ng·h/mL
  DN AUC0-t: 1770 (ng.h/mL)/(mg/kg bw/d)
  Cmax: 153 ng/mL
  Tmax: 7.5 h
  t1/2: 32.1 h
[2]; [7]
  AUC0-t: 51,000 ng.h/mL
  DN AUC0-t: 400 (ng.h/mL)/(mg/kg bw/d)
  Cmax: 930 ng/mL
  Tmax: 3 h
  t1/2: 40.4 h
[2]; [8]
  AUC0-t: 43,000 ng.h/mL
  DN AUC0-t: 342 (ng.h/mL)/(mg/kg bw/d)
  Cmax: 766 ng/mL
  Tmax: 3 h
  t1/2: 36.3 h
[3]
  Behaviour in dosing vehicles: Soluble up to the highest concentration of test item employed. See also Table 2
[4]; [9]
  AUC0-t: 2360 ng·h/mL
  Cmax: 108 ng/mL
  DN AUC0-t: 726 (ng.h/mL)/(mg/kg bw/d)
  DN AUC(0–24): 431 (ng.h/mL)/(mg/kg bw/d)
  Tmax: 3.5 h
  t1/2: 24.5 h
[4]; [10]
  AUC0-t: 1430 ng·h/mL
  Cmax: 71.6 ng/mL
  DN AUC0-t: 440 (ng.h/mL)/(mg/kg bw/d)
  DN AUC(0–24): 323 (ng.h/mL)/(mg/kg bw/d)
  Tmax: 5 h
  t1/2: 23.2 h
[4]; [11]
  AUC0-t: 31,100 ng.h/mL
  Cmax: 632 ng/mL
  DN AUC0-t: 273 (ng.h/mL)/(mg/kg bw/d)
  DN AUC(0–24): 87 (ng.h/mL)/(mg/kg bw/d)
  Tmax: 15.3 h
  t1/2: 25.5 h
[4]; [12]
  AUC0-t: 23,300 ng.h/mL
  Cmax: 367 ng/mL
  DN AUC0-t: 204 (ng.h/mL)/(mg/kg bw/d)
  DN AUC(0–24): 55 (ng.h/mL)/(mg/kg bw/d)
  Tmax: 20.3 h

## O=[N+]([O-])[O-].[Ag+] [AgNO3, silver(I) nitrate]
[1]
  absolute bioavailability (F value): ≤ 5%
[2]; [5]
  AUC0-t: 7690 ng·h/mL
  Cmax: 177 ng/mL
  Tmax: 6 h
  t1/2: 37.5 h
[2]; [6]
  AUC0-t: 5470 ng·h/mL
  Cmax: 132 ng/mL
  Tmax: 4.5 h
  t1/2: 42.1 h
[2]; [13]
  AUC0-t: 54,100 ng.h/mL
  Cmax: 997 ng/mL
  Tmax: 18 h
  t1/2: 39.8 h
[2]; [14]
  AUC0-t: 42,800 ng.h/mL
  Cmax: 738 ng/mL
  Tmax: 12 h
  t1/2: 42.0 h
[3]
  Behaviour in dosing vehicles: Soluble up to the highest concentration of test item employed. See also Table 2
[4]; [9]
  AUC0-t: 4610 ng·h/mL
  AUC(0–24): 1740 ng·h/mL
  Cmax: 109 ng/mL
  Tmax: 3.25 h
  t1/2: 30.8 h
[4]; [10]
  AUC0-t: 1550 ng·h/mL
  AUC(0–24): 994 ng·h/mL
  Cmax: 62.5 ng/mL
  Tmax: 2.5 h
  t1/2: 18.7 h
[4]; [15]
  AUC0-t: 18,700 ng.h/mL
  AUC(0–24): 7670 ng·h/mL
  Cmax: 421 ng/mL
  Tmax: 15 h
  t1/2: 31.7 h
[4]; [16]
  AUC0-t: 19,400 ng.h/mL
  AUC(0–24): 5970 ng·h/mL
  Cmax: 348 ng/mL
  Tmax: 21 h
  t1/2: 37.6 h
